Measurements as given in ChEMBL document CHEMBL5385876, “Discovery of unglycosylated indolocarbazoles as ROCK2 isoform-selective inhibitors for the treatment of breast cancer metastasis” (Eur J Med Chem, 2023).
Counter-ions that a name gives are not always drawn.

Molecular target: Rho-associated protein kinase 2 (Homo sapiens, UniProt O75116)
Assay: Inhibition of N-terminal His10-StrepII tagged human ROCK2 catalytic domain (1 to 553 residues) expressed in Sf9 insect cells by HTRF assay
Conditions: not given

Sequence of Rho-associated protein kinase 2 (O75116 whole entry, the tested form may be a part): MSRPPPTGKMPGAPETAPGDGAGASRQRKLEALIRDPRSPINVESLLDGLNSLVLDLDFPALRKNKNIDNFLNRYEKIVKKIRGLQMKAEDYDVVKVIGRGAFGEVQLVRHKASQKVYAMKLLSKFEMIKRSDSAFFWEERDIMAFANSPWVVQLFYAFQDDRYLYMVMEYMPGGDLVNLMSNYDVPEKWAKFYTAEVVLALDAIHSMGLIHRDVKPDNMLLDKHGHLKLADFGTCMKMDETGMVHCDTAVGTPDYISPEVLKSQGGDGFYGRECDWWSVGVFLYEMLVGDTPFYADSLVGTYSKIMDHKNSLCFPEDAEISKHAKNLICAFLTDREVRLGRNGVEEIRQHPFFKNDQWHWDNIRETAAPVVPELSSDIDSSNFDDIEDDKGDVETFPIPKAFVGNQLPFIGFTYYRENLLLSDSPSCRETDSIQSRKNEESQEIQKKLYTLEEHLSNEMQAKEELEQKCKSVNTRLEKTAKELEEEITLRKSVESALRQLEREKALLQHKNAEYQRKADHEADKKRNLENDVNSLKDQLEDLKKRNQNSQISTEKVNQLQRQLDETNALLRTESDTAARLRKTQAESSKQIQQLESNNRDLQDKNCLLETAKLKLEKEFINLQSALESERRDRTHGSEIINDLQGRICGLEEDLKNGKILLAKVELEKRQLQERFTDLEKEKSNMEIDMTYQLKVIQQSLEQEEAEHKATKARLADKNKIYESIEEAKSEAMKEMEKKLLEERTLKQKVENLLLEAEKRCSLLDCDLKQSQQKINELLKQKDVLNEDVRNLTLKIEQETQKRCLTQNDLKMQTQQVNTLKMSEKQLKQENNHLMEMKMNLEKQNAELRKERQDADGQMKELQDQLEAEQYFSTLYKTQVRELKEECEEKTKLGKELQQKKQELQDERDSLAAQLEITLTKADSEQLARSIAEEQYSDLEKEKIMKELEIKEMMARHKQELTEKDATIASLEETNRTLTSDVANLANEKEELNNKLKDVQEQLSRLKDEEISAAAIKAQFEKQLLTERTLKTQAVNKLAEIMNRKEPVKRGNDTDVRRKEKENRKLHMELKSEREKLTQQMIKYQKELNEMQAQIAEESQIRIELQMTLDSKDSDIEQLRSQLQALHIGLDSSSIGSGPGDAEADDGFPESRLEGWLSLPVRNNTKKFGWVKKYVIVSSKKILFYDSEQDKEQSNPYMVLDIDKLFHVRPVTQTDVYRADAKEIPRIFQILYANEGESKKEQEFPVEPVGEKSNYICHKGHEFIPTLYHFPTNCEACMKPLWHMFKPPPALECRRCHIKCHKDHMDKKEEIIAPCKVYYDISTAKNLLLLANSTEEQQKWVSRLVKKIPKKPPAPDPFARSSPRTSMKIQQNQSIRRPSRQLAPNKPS

Row | Structure (SMILES) | IC50 [nM]
1 | COC(=O)[C@H]1C[C@H]2O[C@]1(C)n1c3ccccc3c3c4c(c5c6ccccc6n2c5c31)C(=O)NC4 | 370
2 | COc1cccc2c1[nH]c1c3[nH]c4ccccc4c3c3c(c21)C(=O)NC3=O | > 500
3 | C[C@]12O[C@H](C[C@]1(O)C(=O)O)n1c3ccccc3c3c4c(c5c6ccccc6n2c5c31)CNC4=O | > 500
4 | CO[C@@H]1[C@H](N(C)C(N)=O)C[C@H]2O[C@]1(C)n1c3ccccc3c3c4c(c5c6ccccc6n2c5c31)C(=O)NC4 | 360
5 | CN[C@@H]1C[C@H]2O[C@@](C)([C@@H]1OC)n1c3ccccc3c3c4c(c5c6ccccc6n2c5c31)C(=O)NC4=O (stereo in doubt; 15) | 20
6 | C[C@@H]1O[C@@H](n2c3ccccc3c3c4c(c5c6ccccc6[nH]c5c32)CNC4=O)[C@H](O)[C@H](O)[C@H]1O | 470
7 | CO[C@@H]1[C@H](N(C)C(C)=O)C[C@H]2O[C@]1(C)n1c3ccccc3c3c4c(c5c6ccccc6n2c5c31)C(=O)NC4 | 570
8 | CN1Cc2c(c3c4ccccc4[nH]c3c3[nH]c4ccccc4c23)C1=O | 510
9 | COc1ccc2c(c1)[nH]c1c3[nH]c4ccccc4c3c3c(c21)C(=O)NC3=O | 620
10 | COc1cccc2[nH]c3c4[nH]c5ccccc5c4c4c(c3c12)C(=O)NC4=O | > 500
11 | COc1ccc2[nH]c3c4[nH]c5ccccc5c4c4c(c3c2c1)C(=O)NC4=O | 100

Tested on: SK-OV-3
Assay: Antiproliferative activity against human SK-OV-3 cells assessed as suppression of cell growth incubated for 72 hrs by SRB assay
Assay type: functional, cell-based
Conditions: SK-OV-3, 72 h

Row | Structure (SMILES) | IC50 [nM]
12 | COc1cccc2c1C(=O)c1c(O)c3c(c(O)c1C2=O)C[C@@](O)(C(=O)CO)C[C@@H]3O[C@H]1C[C@H](N)[C@H](O)[C@H](C)O1 [DOXORUBICIN HYDROCHLORIDE] | 480

Tested on: not listed separately
Assay: Toxicity in BALB/c nude mouse xenografted with human MDA-MB-231 cells harboring Luc-mcherry assessed as reduction in body weight at 15 mg/kg, iv administered once a day for 45 days
Assay type: organism-based
Conditions: in vivo, 1080 h, time 45 day

Row | Structure (SMILES) | Activity
13 | C[C@@H](N)[C@H]1CC[C@H](C(=O)Nc2ccncc2)CC1 [Y-27632] | Non-Toxic

Tested on: MDA-MB-231
Assay: Antiproliferative activity against human MDA-MB-231 cells assessed as suppression of cell growth incubated for 72 hrs by SRB assay
Assay type: functional, cell-based
Conditions: MDA-MB-231, 72 h

Row | Structure (SMILES) | IC50 [nM]
14 | COc1cccc2c1C(=O)c1c(O)c3c(c(O)c1C2=O)C[C@@](O)(C(=O)CO)C[C@@H]3O[C@H]1C[C@H](N)[C@H](O)[C@H](C)O1 [DOXORUBICIN HYDROCHLORIDE] | 1010
